This is an account of results in paper PMC12380353, “MK-8527 is a novel inhibitor of HIV-1 reverse transcriptase translocation with potential for extended-duration dosing” (PLOS Biology, 2025).

Where two headings read alike, the source gives them in different places. Where only a bound is given, the exact number is not on record here.

In assay [1] the test system is HIV-1. As to the kind of experiment: Single-cycle antiviral assay in PBMCs. The class given is cell-based. The method, then:
To evaluate the ability of inhibitors to prevent HIV-1 infection in primary cells, human PBMCs obtained from Biological Specialty Corporation (Colmar, PA, USA) were used to assess antiviral activity. The proviral variants used for these studies were generated by site-directed mutagenesis in a proviral vector derived from NL43 [52] that encodes GFP (pNLG1-P2A-GFP). Virus was produced by transfection in 293T cells.
PBMCs were activated with phytohemagglutinin (PHA) at 5 μg/mL in Roswell Park Memorial Institute (RPMI) 1640 medium containing 10% heat-inactivated fetal bovine serum (FBS) for 2–3 days. Compound plates were prepared by dispensing compounds dissolved in DMSO into 384-well poly-d-lysine-coated plates (0.2 μL per well) using an Echo acoustic dispenser (Labcyte; San Jose, CA, USA). Each compound was tested in a 10-point serial 3-fold dilution (typical final concentrations: 5,000 to 0.1 nM). Controls included no inhibitor (DMSO only) and a combination of 3 antiviral agents, efavirenz, indinavir, and the integrase strand transfer inhibitor, L-002254051, at final concentrations of 4 μM each. PHA-activated human PBMCs were washed and resuspended in RPMI 1640 containing 10% NHS and 30 units per mL of interleukin-2 (IL-2) at 6 × 10^5 cells per mL. PBMCs were added to the compound plates and cultured for 24 h at 37 °C, 5% CO2, and 90% humidity. The appropriate HIV-1 variant was added to the PBMCs and cultured at 37 °C, 5% CO2, and 90% humidity for an additional 24 h.
HIV-1–infected cells were quantified by counting the number of GFP cells in each well using an Acumen eX3 scanner (SPT Labtech; Melbourn, UK).

The subject of assay [2] is HIV-1IIIB. Kind of assay: Cytoprotection assay in CEM-SS cells, HIV-1. The class given is cell-based. Conditions: Human immunodeficiency virus 1, 144 h, 6 days, read-out: Antiviral potency as IC50, HIV-1 – CEM-SS cells. The method, then: The antiviral activity of MK-8527 against HIV-1 and HIV-2 was determined in a cytoprotection assay in CEM-SS cells at ImQuest BioSciences (Fredrick, MD, USA). Briefly, CEM-SS cells (National Institute of Health AIDS Research and Reference Reagent Program) were passaged in RPMI 1640 supplemented with 10% heat-inactivated FBS, 2 mM L-glutamine, 100 U/mL penicillin and 100 µg/mL streptomycin prior to use in the antiviral assay. On the day preceding the assay, the cells were split 1:2 to ensure they were in an exponential growth phase at the time of infection. The cells were resuspended at 2.5 × 10^3 cells per well in cell culture medium and added to the drug-containing microtiter plates at 50 µL per well. MK-8527 was tested in triplicate for each experiment, with 12 test concentrations added at 100 µL per well.
Lymphocyte-tropic virus strains HIV-1IIIB or HIV-2ROD (NIH AIDS Research and Reference Reagent Program) were diluted into tissue culture medium such that the amount of virus added to each well in a volume of […] corresponded to the amount determined to yield 85% to 95% cell killing in the untreated virus control wells at 6–7 days. Virus was added immediately after cells were added to the 96-well microtiter plates.
The IC50 for MK-8527 antiviral activity was determined using 4-parameter curve fit calculations.

The target in assay [3] is human DNA polymerases α and β and human mitochondrial DNA polymerase γ. As to the kind of experiment: Human DNA polymerase inhibition assays (summary for α, β, γ). The class given is biochemical. Conditions: read-out: IC50 values against human DNA polymerases tested. Here is the method:
The activities of human DNA polymerases α, β, and γ were measured in radiolabeled nucleotide incorporation assays. TP was prepared as a 10-point titration with 3-fold serial dilution in water. Reaction buffers for the DNA polymerase α and β assays both contained 20 mM Tris pH 7.5, 10 mM MgCl2, 50 μM EDTA, 200 μg/mL bovine serum albumin (BSA), 2 mM dithiothreitol (DTT), 1.6 μM each of dNTP (dATP, dCTP, dGTP, and dTTP), 20 μCi/mL [α33P]dATP, 0.1 mg/mL gapped activated fish sperm DNA template, test compound, and 0.005 U/μL DNA polymerase α or 0.0025 U/μL DNA polymerase β. The reaction buffer for DNA polymerase γ contained 20 mM Tris pH 8, 10 mM MgCl2, 50 mM KCl, 100 μg/mL BSA, 2 mM β-mercaptoethanol, 10 μM of each dNTP (dATP, dCTP, dGTP, and dTTP), 20 μCi/mL [α33P]dATP, 0.04 mg/mL gapped activated fish sperm DNA template, test compound, and 0.0003 μg/μL DNA polymerase γ. The 50-μL reactions were incubated at room temperature for 30 min (for β and γ) or 90 min (for α) before terminating with the addition of 50 μL 500 mM EDTA. The reaction mixtures were transferred to a Millipore DE81 filter plate (EMD Millipore; Hayward, CA), washed with 0.5 M sodium phosphate pH 7.0, and dried. After addition of 40 μL scintillant to each well, the incorporation of labeled dATP was determined with a microplate counter (TopCount NXT HTS; PerkinElmer, Shelton, CA, USA).

Assay [4] deals with T1, HIV RT (Human immunodeficiency virus type 1 group M subtype B, UniProt P04585).
T1 construct: HIV RT (final concentration, 1,200 nM)
Kind of assay: Iron footprinting assay of RT translocation state. The class given is biochemical. The method, then:
The translocation state of RT was assessed with a site-specific iron footprinting assay adapted from previous work. Primer and template used for this assay are described in Fig 7A. The presence of Fe^2+ ions in the reaction generated hydroxyl radicals that cleaved the DNA template in a site-specific manner at the nucleotide closest to the RNase H active site. In addition to an RT inhibitor in the reaction, dTTP, the subsequent dNTP, was provided in dose titration to force the translocation of the 3′-primer terminus from the pre-translocation N-site to the post-translocation P-site.
(final concentration, 1 µM), or ddATP (final concentration, 5 µM), Td43/Pd30 pre-annealed primer and template (final concentration, 200 nM based on Cy3-labeled Td43 concentration), and dTTP titrated at various concentrations. All reagent stocks were in a base assay buffer consisting of 120 mM Tris pH 7.5, 20 mM NaCl, and 6 mM MgCl2 in nuclease-free water. […] The reaction was then heated to 37 °C for 5 min before quenching 1:1 with gel-loading dye followed by heating at 95 °C for 10 min. Samples were stored at −20 °C until being resolved by polyacrylamide gel electrophoresis with 7 M urea.

On to `C#C[C@]1(CO)O[C@@H](n2ccc3c(N)nc(Cl)nc32)C[C@@H]1O` [Compound 12, (2R,3S,5R)-5-(4-amino-2-chloro-7H-pyrrolo[2,3-d]pyrimidin-7-yl)-2-ethynyl-2-(hydroxymethyl)tetrahydrofuran-3-ol], for which the “PBMC IC50” value in assay [1] (HIV-1, single-cycle assay, human PBMCs, 10% NHS) is on record as “subnanomolar potency”. Also, the IC50 came to 0.2 nM in assay [1] (Human immunodeficiency virus 1, PBMC, read-out: PBMC IC50, HIV-1, single-cycle assay, human PBMCs, 10% NHS); 0.21 ± 0.09 nM in assay [1] (read-out: PBMC IC50, HIV-1, single-cycle assay, human PBMCs, 10% NHS, listed as MK-8527); 0.14 nM in assay [2].

For the compound `C#C[C@]1(COP(=O)(O)OP(=O)(O)OP(=O)(O)O)O[C@@H](n2ccc3c(N)nc(Cl)nc32)C[C@@H]1O` [MK-8527-TP], the IC50 in assay [3] was at least 95000 nM. Also, the “Translocation state of RT” value in assay [4] (1 µM MK-8527-TP or ISL-TP, 5 µM ddATP, absence or presence of dTTP) is recorded as “remained in a pre-translocation (−18) state”. Besides, the “dTTP concentration above which post-translocation state products (−17) began accumulating” value in assay [4] (1 µM inhibitor) was over 6.2 µM.
